The results in this text go back to DBAASP.

In brackets after ≈: the same amount, converted by molar mass. Several values for one entry are separate records, joined by “and”; a condition that tells them apart may be missing. Equal values may be shown once.

In the assay the test system is Escherichia coli ATCC 25922. The experiment in a line: ≥ marks a high value that may be exact or a test limit, other limits are often not marked, values filed in µg/mL are converted to µM.
Usually MIC stands for the lowest concentration found to suppress growth. Low readings indicate greater potency, high ones weaker potency. `CC[C@H](C)[C@H](NC(=O)[C@H](CCCCN)NC(=O)[C@H](CCCCN)NC(=O)[C@@H](NC(=O)[C@@H](NC(=O)[C@H](CCCCN)NC(=O)[C@H](Cc1ccccc1)NC(=O)[C@H](CC(C)C)NC(=O)CN)[C@@H](C)CC)[C@@H](C)CC)C(=O)N[C@@H](C)C(=O)N[C@@H](CCCCN)C(=O)N[C@@H](CO)C(=O)N[C@@H](Cc1ccccc1)C(N)=O` [GLFKIIKKIAKSF]: the MIC is 16.7 µM and 33.5 µM.

In turn, `CC[C@H](C)[C@H](NC(=O)CNC(=O)[C@H](C)NC(=O)[C@@H](NC(=O)[C@H](CC(N)=O)NC(=O)[C@H](CCCCN)NC(=O)[C@H](C)NC(=O)[C@H](C)NC(=O)CNC(=O)[C@H](CCCCN)NC(=O)[C@@H](NC(=O)[C@@H](NC(=O)[C@H](CC(=O)O)NC(=O)[C@H](CC(C)C)NC(=O)[C@H](CC(C)C)NC(=O)[C@H](CC(C)C)NC(=O)CN)[C@@H](C)O)C(C)C)C(C)C)C(=O)N[C@@H](CC(C)C)C(=O)N[C@@H](CC(C)C)C(=O)N[C@@H](CC(N)=O)C(=O)N[C@@H](CCCCN)C(=O)N[C@@H](CC(C)C)C(=O)N[C@@H](CCCCN)C(=O)N[C@H]1CSSC[C@@H](C(=O)O)NC(=O)[C@H](CC(=O)O)NC(=O)CNC(=O)[C@H]([C@@H](C)O)NC(=O)[C@H](CCSC)NC(=O)[C@H](CCCCN)NC1=O` [GLLLDTVKGAAKNVAGILLNKLKCKMTGDC] had an MIC of 4.05 µM (≈ 12.5 µg/mL). Turning to `CC[C@H](C)[C@H](NC(=O)[C@@H](NC(=O)[C@H](CC(=O)O)NC(=O)[C@H](CC(C)C)NC(=O)[C@H](CC(C)C)NC(=O)[C@H](CCC(N)=O)NC(=O)CNC(=O)[C@H](C)NC(=O)[C@H](CC(C)C)NC(=O)[C@H](CC(N)=O)NC(=O)[C@H](CCCCN)NC(=O)[C@H](C)NC(=O)[C@H](C)NC(=O)[C@H](CC(N)=O)NC(=O)[C@H](CCCCN)NC(=O)[C@@H](NC(=O)[C@@H](NC(=O)[C@H](CC(=O)O)NC(=O)[C@H](CCSC)NC(=O)[C@H](CC(C)C)NC(=O)CN)[C@@H](C)O)C(C)C)[C@@H](C)O)C(=O)N[C@@H](CCCCN)C(=O)N[C@H]1CSSC[C@@H](C(=O)O)NC(=O)CNC(=O)[C@H]([C@@H](C)O)NC(=O)[C@H](CCSC)NC(=O)[C@H](CCCCN)NC1=O` [GLMDTVKNAAKNLAGQLLDTIKCKMTGC], the minimal inhibitory concentration (MIC) was 30 µM (≈ 88.1 µg/mL). The result for `CSCC[C@H](NC(=O)[C@H](CCCN=C(N)N)NC(=O)[C@H](Cc1c[nH]c2ccccc12)NC(=O)[C@H](CCC(N)=O)NC(=O)[C@H](Cc1c[nH]c2ccccc12)NC(=O)[C@H](CCCN=C(N)N)NC(=O)[C@@H](N)CCCN=C(N)N)C(=O)N[C@@H](CCCCN)C(=O)N[C@@H](CCCCN)C(=O)O` [RRWQWRMKK] reads 186 µM (≈ 256 µg/mL). `CC(C)C[C@H](NC(=O)[C@H](Cc1ccccc1)NC(=O)[C@@H]1CCCN1C(=O)[C@H](Cc1c[nH]c2ccccc12)NC(=O)[C@H](Cc1c[nH]c2ccccc12)NC(=O)[C@H](Cc1c[nH]c2ccccc12)NC(=O)[C@H](C)NC(=O)[C@H](Cc1ccccc1)NC(=O)[C@H](CCCCN)NC(=O)[C@H](CCCCN)NC(=O)[C@@H](N)C(C)C)C(=O)N[C@@H](CCCCN)C(=O)N[C@@H](CCCCN)C(N)=O` [VKKFAWWWPFLKK] returned a minimum inhibitory concentration (MIC) of 32 µM (≈ 56.4 µg/mL). The result for `CC(C)C[C@H](NC(=O)[C@H](Cc1ccccc1)NC(=O)[C@@H]1CCCN1C(=O)[C@H](C)NC(=O)[C@H](Cc1c[nH]c2ccccc12)NC(=O)[C@H](Cc1c[nH]c2ccccc12)NC(=O)[C@@H]1CCCN1C(=O)[C@H](Cc1ccccc1)NC(=O)[C@H](CCCN=C(N)N)NC(=O)[C@H](CCCN=C(N)N)NC(=O)[C@@H](N)C(C)C)C(=O)N[C@@H](CCCN=C(N)N)C(=O)N[C@@H](CCCN=C(N)N)C(N)=O` [VRRFPWWAPFLRR] reads 8 µM (≈ 14.3 µg/mL).
